Test [1] relates to IL-23 (p19/p40). The test can be described thus: IL23-p19 ELISA, dendritic cells (DC differentiated from human PBMC, IFNγ primed), LPS stimulated. The format is cell-based. Conditions: Dendritic cell, human PBMC-derived dendritic cells, 1 h compound pre-incubation, LPS 1 μg/ml 18 hours, 10 pt. The method, boiled down: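 PBMC-derived DCs (GM-CSF 100 ng/ml + IL-4 20 ng/ml, 7 days) primed 24 h with IFNγ 50 ng/ml, 50K cells/well; compound pre-incubated 1 h at 37° C, then LPS, 18 h. Supernatant IL-23 by p19-capture/p40-detection chemiluminescent ELISA; cytotoxicity by Cell Titer Glo.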

Test [2] deals with IL-23p19. The test can be described thus: LPS Induced IL23p19 in THP-1 Cells (with IFNγ Primed) Assay. It is filed as cell-based, human. Conditions: Homo sapiens, THP-1, THP-1 cells, IFNγ (50 ng/mL) primed, 1 hour compound pre-incubation, LPS 1 ug/mL 18 hours, 10 pt; read-out: IL23-p19 ELISA, THP1-IFNy, LPS, 10 pt EC50. The method, boiled down: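 THP-1 cells (50K/well) primed ~18 h with IFNγ (50 ng/mL) in RPMI/10% FBS, then incubated with compound in duplicate for 18 h at 37° C. Supernatant IL-23p19 measured by chemiluminescent sandwich ELISA, giving EC50 by curve fitting. Toxicity assessed in parallel on the remaining cells by Cell Titer Glo.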
A general note: In an ELISA, binding on a coated surface is turned into a signal by an enzyme label.

Structures are written as SMILES. Where a name gives a salt, the structure may show the parent alone.

In general, EC50 refers to the concentration giving half of the maximal effect.

As for `COCCOCCn1cc(NC(=O)c2cccc(Oc3ccnc(N)c3)n2)c(-c2ccccn2)n1` [Compound I-156, 6-((2-aminopyridin-4-yl)oxy)-N-(1-(2-(2-methoxyethoxy)ethyl)-3-(pyridin-2-yl)-1H-pyrazol-4-yl)picolinamide formate], the figures for the EC50 in test [1] and in test [2] were 2730 nM and 21400 nM, respectively.

Regarding `Cn1cc(NC(=O)c2cccc(-c3cn[nH]c3)n2)c(N2CCCC2)n1` [Compound I-72, N-(1-methyl-3-(pyrrolidin-1-yl)-1H-pyrazol-4-yl)-6-(1H-pyrazol-4-yl)picolinamide], the EC50 in test [1] is 3170 nM; in test [2], 7580 nM.

For the compound `Cn1cc(NC(=O)c2cccc(-c3cc[nH]c3)n2)c(-c2ccccn2)n1` [Compound I-11, N-(1-methyl-3-(pyridin-2-yl)-1H-pyrazol-4-yl)-6-(1H-pyrrol-3-yl)picolinamide], the values for the EC50 in test [1] and in test [2] were 4120 nM and 5900 nM, respectively.

As for `CN1CCN(c2ccc(-c3nn(C)cc3NC(=O)c3cccc(-c4cn[nH]c4)n3)nc2)CC1` [Compound I-174, N-(1-methyl-3-(5-(4-methylpiperazin-1-yl)pyridin-2-yl)-1H-pyrazol-4-yl)-6-(1H-pyrazol-4-yl)picolinamide], the EC50 is 7070 nM in test [1] and 19500 nM in test [2].

As for `O=C(Nc1cn(C2CCOCC2)nc1-c1ccccn1)c1cccc(-c2cc[nH]n2)n1` [Compound I-166, 6-(1H-pyrazol-3-yl)-N-(3-(pyridin-2-yl)-1-(tetrahydro-2H-pyran-4-yl)-1H-pyrazol-4-yl)picolinamide], the EC50 in test [1] stood at 71 nM; in test [2], 1090 nM.

`CN1CCN(c2cncc(-c3cccc(C(=O)Nc4cn(C)nc4-c4ccccn4)n3)c2)CC1` [Compound I-38, N-(1-methyl-3-(pyridin-2-yl)-1H-pyrazol-4-yl)-5′-(4-methylpiperazin-1-yl)-[2,3′-bipyridine]-6-carboxamide]: the EC50 worked out at 33700 nM in test [1] and 6200 nM in test [2].

As to `Cc1cncc(-c2cccc(C(=O)Nc3cn(C(C)C)nc3-c3ccccn3)n2)c1` [Compound I-81, N-(1-isopropyl-3-(pyridin-2-yl)-1H-pyrazol-4-yl)-5′-methyl-[2,3′-bipyridine]-6-carboxamide], the EC50 was 6470 nM in test [1] and 2780 nM in test [2].

As for `Cc1cncc(-c2ccnc(C(=O)Nc3cn(C)nc3-c3ccccn3)n2)c1` [Compound I-120, N-(1-methyl-3-(pyridin-2-yl)-1H-pyrazol-4-yl)-4-(5-methylpyridin-3-yl)pyrimidine-2-carboxamide], the EC50 in test [1] turned out to be 2990 nM; in test [2] it was 46900 nM.

For `COCCOCCn1cc(NC(=O)c2cccc(-c3cncc(C)c3)n2)c(-c2ccccn2)n1` [Compound I-149, N-(1-(2-(2-methoxyethoxy)ethyl)-3-(pyridin-2-yl)-1H-pyrazol-4-yl)-5′-methyl-[2,3′-bipyridine]-6-carboxamide formate], the EC50 came out at 1420 nM in test [1] and 1200 nM in test [2].

`Cn1cc(NC(=O)c2cccc(-c3cc[nH]n3)n2)c(-c2ccc(OC3COC3)cn2)n1` [Compound I-183, N-(1-methyl-3-(5-(oxetan-3-yloxy)pyridin-2-yl)-1H-pyrazol-4-yl)-6-(1H-pyrazol-3-yl)picolinamide]: the EC50 in test [1] worked out at 216 nM; in test [2] it was 96.1 nM.

In the case of `CC(C)Nc1cncc(-c2cccc(C(=O)Nc3cn(C)nc3-c3ccccn3)n2)c1` [Compound I-28, 5′-(isopropylamino)-N-(1-methyl-3-(pyridin-2-yl)-1H-pyrazol-4-yl)-[2,3′-bipyridine]-6-carboxamide], the EC50 was 546 nM in test [1] and 1450 nM in test [2].

Take `COCCOCCn1cc(NC(=O)c2cccc(-c3ccc(N)nc3)n2)c(-c2ccccn2)n1` [Compound I-142, 6′-amino-N-(1-(2-(2-methoxyethoxy)ethyl)-3-(pyridin-2-yl)-1H-pyrazol-4-yl)-[2,3′-bipyridine]-6-carboxamide formate]: the EC50 in test [1] amounted to 2540 nM; in test [2] it was 761 nM.

For the origin of these results see patent US10947216B2, “Amide compounds and method for making and using” (Rigel Pharmaceuticals, Inc., priority 2016, dated 2021).
